pIC50: −log10 of the molar value. Bounds are passed on as bounds.

The assay is described as follows: Ca2+ Flux Assay: GÎ±15 HEK293 cells stably expressing rat mGlu2 were plated in black-walled, clear-bottomed, poly-D-lysine coated 384-well plates in 20 Î¼L of assay medium (DMEM containing 10% dialyzed FBS, 20 mM HEPES, and 1 mM sodium pyruvate) at a density of 12K cells/well. The cells were grown overnight at 37° C. in the presence of 5% CO2. The next day, medium was removed and the cells incubated with 20 Î¼L of 2.3 Î¼M Fluo-4, AM prepared as a 2.3 mM stock in DMSO and mixed in a 1:1 ratio with 10% (w/v) pluronic acid F-127 and diluted in assay buffer (Hank's balanced salt solution, 20 mM HEPES, and 2.5 mM probenecid) for 45 minutes at 37° C. Dye was removed, 20 Î¼L of assay buffer was added, and the plate was incubated for 5 minutes at room temperature. For orientation: Calcium assays in cells follow changes in intracellular calcium, usually with a dye or a luminescent sensor.
For the molecule `Cn1cc(-c2cc(C(N)=O)ncc2OCc2ccc(C(F)(F)F)nc2)cn1`, the pIC50 (as a rule, the IC50 on a negative log10 scale, so that one unit is a factor of ten) was < 5.00. For `C[C@@H]1CN(CCCOc2cnc(C(N)=O)cc2-c2ccc(F)cc2)C[C@H](C)O1`, the pIC50 was < 5.00. With `C[C@@H]1CN(CCOc2cnc(C(N)=O)cc2-c2ccc(F)cc2)C[C@H](C)O1`, the pIC50 was < 5.00. Under `NC(=O)c1cc(-c2ccc(F)cc2)c(OCCOc2ccccc2F)cn1` stands 5.70; under `C[C@@H]1CN(CCOc2cnc(C#N)cc2-c2ccc(F)cc2)C[C@H](C)O1`, < 4.52.
